BindingDB's records for doi:10.1016/j.chembiol.2017.01.006 (Sanford Burnham Prebys Medical Discovery Institute, 2017)
Where a SMILES comes first, the peptide text is derived from it. [ ]: non-standard residue; d: D form. Trp(5-OH) = N[C@@H](Cc1c[nH]c2ccc(O)cc12)C(=O)O; Phe(4-Cl) = N[C@@H](Cc1ccc(Cl)cc1)C(=O)O; 4Pal = N[C@@H](Cc1ccncc1)C(=O)O; Ava = NCCCCC(=O)O; GABA = NCCCC(=O)O

Columns and labels:
[1] = target: T1, Ephrin type-A receptor 4 [29-209] (Homo sapiens, UniProt P54764); assay: Fluorescence Polarization Assay; details: pH 7.2; 25 °C
T1 construct: 29-209
T1 sequence (P54764 29-209): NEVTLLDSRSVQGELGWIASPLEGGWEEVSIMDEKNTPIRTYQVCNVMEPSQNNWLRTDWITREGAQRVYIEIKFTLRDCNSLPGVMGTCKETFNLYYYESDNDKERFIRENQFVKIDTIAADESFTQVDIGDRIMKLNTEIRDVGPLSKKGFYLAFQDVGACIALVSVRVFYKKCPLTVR
Protocol: For competitive binding assays, 1 mL of […] EphA4-LBD was pre-incubated with the tested compounds at various concentrations in 98 mL of PBS (pH 7.2) in 96-well black plates at roomtemperature for 10 min, after which 1 mL of 500 mMFITC-labeled EphA4 peptide was added to produce a final volume of […].

[2] = target: T1, Ephrin type-A receptor 4 [29-209]; assay: Isothermal Titration Calorimetry (ITC); details: pH 6.5; 27 °C
Protocol: (§1) The purified EphA proteins (EphA4-LBD, EphA3-LBD, and EphA2-LBD) were dissolved in 50 mM potassium phosphate buffer (pH 6.5) containing 100 mM NaCl. Compound binding was detected at 27 °C by comparing either the 2D-[15N,1H]-HSQC or 2D-[13C,1H]-HSQC spectra of 50 mMEphA4-LBD in absence and presence of compounds at 50 mM. ITC were measured with Model ITC200 from Microcal/GE Life Sciences.

[3] = target: T2, Ephrin type-A receptor 3 [29-207] (Homo sapiens, UniProt P29320); assay: Isothermal Titration Calorimetry (ITC); details: pH 6.5; 27 °C
T2 construct: 29-207
T2 sequence (P29320 whole entry): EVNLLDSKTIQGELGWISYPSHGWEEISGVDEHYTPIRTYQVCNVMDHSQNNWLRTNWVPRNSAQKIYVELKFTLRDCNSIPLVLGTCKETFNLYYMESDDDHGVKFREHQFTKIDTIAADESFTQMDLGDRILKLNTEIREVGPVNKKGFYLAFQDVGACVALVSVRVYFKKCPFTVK
Protocol: as §1

| Ki [1] [µM] | Kd [2] [µM] | Kd [3] [µM] | Structure (SMILES) |
| --- | --- | --- | --- |
| 14 |  |  | NCCC(=O)N[C@@H](Cc1c[nH]c2ccc(O)cc12)C(=O)N[C@@H](Cc1ccc(Cl)cc1)C(=O)N[C@@H](Cc1ccncc1)C(=O)N[C@H](Cc1ccncc1)C(N)=O [120G1] |
| > 100 |  |  | CC(C)(N)C(C)(C)C(=O)N[C@@H](Cc1c[nH]c2ccc(O)cc12)C(=O)N[C@@H](Cc1ccc(Cl)cc1)C(=O)N[C@@H](Cc1ccncc1)C(=O)N[C@H](Cc1ccncc1)C(N)=O [120G2] |
| 0.96 |  |  | NCCCC(=O)N[C@@H](Cc1c[nH]c2ccc(O)cc12)C(=O)N[C@@H](Cc1ccc(Cl)cc1)C(=O)N[C@@H](Cc1ccncc1)C(=O)N[C@H](Cc1c[nH]c2ccccc12)C(N)=O [120H10] (H-[GABA][Trp(5-OH)][Phe(4-Cl)][4Pal][dW]-NH2) |
| 3.04 |  |  | NCCCCC(=O)N[C@@H](Cc1c[nH]c2ccc(O)cc12)C(=O)N[C@@H](Cc1ccc(Cl)cc1)C(=O)N[C@@H](Cc1ccncc1)C(=O)N[C@H](Cc1c[nH]c2ccccc12)C(N)=O [123B1] (H-[Ava][Trp(5-OH)][Phe(4-Cl)][4Pal][dW]-NH2) |
| 1.59 | 1.1 |  | NCCCC(=O)N[C@@H](Cc1c[nH]c2ccc(O)cc12)C(=O)N[C@@H](Cc1ccc(Cl)cc1)C(=O)N[C@@H](Cc1ccncc1)C(=O)NCCc1c[nH]c2ccccc12 [123C2] |
| 2.22 |  |  | NCCCC(=O)N[C@@H](Cc1c[nH]c2ccc(O)cc12)C(=O)N[C@@H](Cc1ccc(Cl)cc1)C(=O)N[C@@H](Cc1ccncc1)C(=O)NCCc1c[nH]c2ccc(F)cc12 [123C3] |
|  |  | 4.55 | COc1ccc2[nH]cc(CCNC(=O)[C@H](Cc3ccncc3)NC(=O)[C@H](Cc3ccc(Cl)cc3)NC(=O)[C@H](Cc3c[nH]c4ccc(O)cc34)NC(=O)CCCN)c2c1 [123C4] |
| 2.57 | 2.2 |  | NCCCC(=O)N[C@@H](Cc1c[nH]c2ccc(O)cc12)C(=O)N[C@@H](Cc1ccc(Cl)cc1)C(=O)N[C@@H](Cc1ccncc1)C(=O)NCCc1c[nH]c2ccc(O)cc12 [123C5] |
| 3.14 |  |  | NCCCC(=O)N[C@@H](Cc1c[nH]c2ccc(O)cc12)C(=O)N[C@@H](Cc1ccc(Cl)cc1)C(=O)N[C@@H](Cc1ccncc1)C(=O)NCCc1c[nH]c2ccc(Cl)cc12 [123C6] |
| 1.59 | 0.54 |  | COc1ccc2c(CCNC(=O)[C@H](Cc3ccncc3)NC(=O)[C@H](Cc3ccc(Cl)cc3)NC(=O)[C@H](Cc3c[nH]c4ccc(O)cc34)NC(=O)CCCN)c[nH]c2c1 [123C7] |
| 7.67 |  |  | NCCCC(=O)N[C@@H](Cc1c[nH]c2ccc(O)cc12)C(=O)N[C@@H](Cc1ccc(Cl)cc1)C(=O)N[C@@H](Cc1ccncc1)C(=O)NCCc1cccc2ccccc12 [123C12] |
| 2.14 | 1.2 |  | NCCC(=O)N[C@@H](Cc1c[nH]c2ccc(O)cc12)C(=O)N[C@@H](Cc1ccc(Cl)cc1)C(=O)N[C@@H](Cc1ccncc1)C(=O)N[C@H](Cc1c[nH]c2ccccc12)C(N)=O [EphA4-LBC inhibitor, Compound 22] |
